# Literature values as cited in patent US20050009776A1, “Method of treating atrial fibrillation or atrial flutter” (Aderis Pharmaceuticals, Inc., priority 2003, published 2005).
# Settings: cited from earlier work
structure (smiles),measurement,value
Nc1ncnc2c1ncn2[C@@H]1O[C@H](CO)[C@@H](O)[C@H]1O [adenosine],half-life,10 s
